Values quoted from earlier work, collected in patent EP1146906B1, “MUCOSAL DELIVERY SYSTEM” (Alk-Abelló A/S, priority 1999, dated 2000).
Read-outs that look alike come from different tables or passages of the source.

Settings: compared to the parenteral equivalent

**Q.** Which results are given for desmopression?
**A.** bioavailability (after nasal administration): 10%; bioavailability (after oral administration): 1%
